Assays:
[1] = biological target: rhesus monkey bombesin receptor subtype-3 (rhesus monkey) (UniProt Q6H2Y3); assay: cell-based or functional assay
[2] = test system: all three human bombesin receptor subtypes; details: literature statement, Pradhan et al., Eur. J. Pharmacol. 343: 275-87 (1998); cited from earlier work
[3] = test system: rhesus monkey BRS3 receptor; assay: Functional expression of rhesus monkey BRS3 in aequorin-expressing reporter cell line 293-AEQ17 (luminescence, fractional response); type: cell-based; details: 293-AEQ17 cells transfected with rhesus monkey BRS3 plasmid, aequorin light emission, read-out: EC50 value for activation of the rhesus monkey BRS3 receptor
Protocol: Measurement of rhesus monkey BRS3 receptor expression in the aequorin-expressing stable reporter cell line 293-AEQ17 (Button et al., 1993. Cell Calcium 14: 663-671) was performed using a Luminoskan RT luminometer (Labsystems Inc., Gaithersburg, Md.) controlled by custom software written for a Macintosh PowerPC 6100. 293-AEQ17 cells (8×10^5 cells plated 18 hours before transfection in a T75 flask) were transfected with 22 μg of rhesus monkey BRS3 receptor plasmid DNA: 264 μg lipofectamine.
Following approximately 40 hours of expression, the apo-aequorin in the cells was charged for 4 hours with coelenterazine (10 μM) under reducing conditions (300 μM reduced glutathione) in ECB buffer (140 mM NaCl, 20 mM KCl, 20 mM HEPES-NaOH [pH=7.4], 5 MM glucose, 1 mM MgCl2, 1 mM CaCl2, 0.1 mg/ml bovine serum albumin). The cells were harvested, washed once in ECB medium and resuspended to 500,000 cells/ml. 100 μl of cell suspension (corresponding to 5×10^4 cells) was then injected into the test plate containing the BRS3 agonist peptide D-Tyr6-betaAla11-Phe13-Nle14]bombesin6-14, and the integrated light emission was recorded over 30 seconds, in 0.5-second units. 20 μL of lysis buffer (0.1% final Triton X-100 concentration) was then injected and the integrated light emission recorded over 10 seconds, in 0.5-second units. […]

rhesus monkey BRS3 receptor, sequence (as listed by the source): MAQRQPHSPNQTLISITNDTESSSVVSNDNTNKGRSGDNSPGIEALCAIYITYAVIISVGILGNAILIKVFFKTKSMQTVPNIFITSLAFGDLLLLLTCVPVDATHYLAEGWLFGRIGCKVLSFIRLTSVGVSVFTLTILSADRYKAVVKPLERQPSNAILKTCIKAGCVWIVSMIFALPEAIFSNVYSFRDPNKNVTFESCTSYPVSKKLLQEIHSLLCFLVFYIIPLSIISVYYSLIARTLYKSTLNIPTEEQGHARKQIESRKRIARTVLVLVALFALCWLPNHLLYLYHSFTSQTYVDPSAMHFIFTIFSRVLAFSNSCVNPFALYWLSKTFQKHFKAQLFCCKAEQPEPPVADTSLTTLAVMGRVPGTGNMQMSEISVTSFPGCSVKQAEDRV
rhesus monkey bombesin receptor subtype-3 (rhesus monkey), sequence (Q6H2Y3 whole entry): as the sequence (as listed by the source) above

Substance	EC50 value for activation (aequorin luminescence, fractional response, in transfected 293-AEQ17 cells) [1]	affinity for all three human bombesin receptor subtypes [2]	EC50 [3]
[D-Tyr6-betaAla11-Phe13-Nle14]bombesin(6-14) (peptide)	10 nM		
[D-Tyr6-betaAlal 11-Phe13-Nle14] bombesin(6-14) [dYB]		high affinity	10 nM

Reference: patent publication US20070037219A1, “Rhesus monkey bombesin receptor subtype-3 (brs-3), nucleotides encoding same, and uses thereof” (priority 2003, published 2007)
